The target in the assay is T1, Human CYP8B1 (Homo sapiens, UniProt Q9UNU6).
T1 sequence (Q9UNU6 1-501): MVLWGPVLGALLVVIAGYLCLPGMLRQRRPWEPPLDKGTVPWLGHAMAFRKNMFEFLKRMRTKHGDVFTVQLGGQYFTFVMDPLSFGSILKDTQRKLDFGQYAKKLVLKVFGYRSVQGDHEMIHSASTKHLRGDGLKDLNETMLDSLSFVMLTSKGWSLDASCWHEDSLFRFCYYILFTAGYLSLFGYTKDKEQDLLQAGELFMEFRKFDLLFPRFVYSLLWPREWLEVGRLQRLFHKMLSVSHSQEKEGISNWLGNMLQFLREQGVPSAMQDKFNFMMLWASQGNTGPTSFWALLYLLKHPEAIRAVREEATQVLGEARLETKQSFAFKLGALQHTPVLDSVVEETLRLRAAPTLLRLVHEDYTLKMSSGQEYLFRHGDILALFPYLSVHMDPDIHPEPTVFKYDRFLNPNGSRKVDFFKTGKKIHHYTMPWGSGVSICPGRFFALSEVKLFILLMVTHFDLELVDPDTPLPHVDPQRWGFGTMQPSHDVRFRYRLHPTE
Briefly: Human CYP8B1 Liver Microsome Assay. To be noted: Human CYP8B1 IC50, human liver microsomes; substrate 7a-hydroxy-4-cholesten-3-one, NADPH; RapidFire MS detection of 7α,12α-dihydroxy-4-cholesten-3-one. Background: Liver microsomes are vesicles of endoplasmic reticulum, rich in cytochrome P450 enzymes.

On to `C[C@@H]1CN(c2c(C#N)cnc3ncc(Br)cc23)CC[C@@H]1C(=O)N1CCn2c(nnc2C(F)(F)F)C1` [Example 30, 6-bromo-4-[(3S,4S)-3-methyl-4-{[3-(trifluoromethyl)-5,6-dihydro[1,2,4]triazolo[4,3-a]pyrazin-7(8H)-yl]carbonyl}piperidin-1-yl]-1,8-naphthyridine-3-carbonitrile], for which half-maximal inhibition (IC50) was put at 30 nM.
For the compound `CC(C)COc1ccc2c(N3CC[C@H](C(=O)N4CCn5c(nnc5C(F)(F)F)C4)[C@H](C)C3)c(C#N)cnc2c1` [Example 101, 7-(2-methylpropoxy)-4-[(3S,4S)-3-methyl-4-{[3-(trifluoromethyl)-5,6-dihydro[1,2,4]triazolo[4,3-a]pyrazin-7(8H)-yl]carbonyl}piperidin-1-yl]quinoline-3-carbonitrile], it took 0.33 nM to reach half-maximal inhibition (IC50).
Regarding `Cc1ccc2nc(C)c(C#N)c(N3CCC(C(=O)N4CCn5c(nnc5C(F)(F)F)C4)CC3)c2c1` [Example 52, 2,6-dimethyl-4-(4-(3-(trifluoromethyl)-5,6,7,8-tetrahydro-[1,2,4]triazolo[4,3-a]pyrazine-7-carbonyl)piperidin-1-yl)quinoline-3-carbonitrile], the IC50 – broadly, the midpoint of a concentration-inhibition curve – amounted to 118 nM.
Under `C[C@@H]1CN(c2c(C#N)cnc3cc(OC(F)(F)F)ccc23)CC[C@@H]1C(=O)N1CCn2c(nnc2C(F)(F)F)C1` [Example 22, 4-[(3S,4S)-3-methyl-4-{[3-(trifluoromethyl)-5,6-dihydro[1,2,4]triazolo[4,3-a]pyrazin-7(8H)-yl]carbonyl}piperidin-1-yl]-7-(trifluoromethoxy)quinoline-3-carbonitrile] stands 0.22 nM; under `N#Cc1cnc2ccc(Cl)cc2c1N1CC[C@]2(C(=O)N3CCn4c(nnc4C(F)(F)F)C3)C[C@@H]2C1` (single isomer, unassigned) [Example 81a], 1290 nM; under `C[C@@H]1CN(c2c(C#N)cnc3c(F)cc(F)cc23)CC[C@@H]1C(=O)N1CCn2c(nnc2C(F)(F)F)C1` [Example 26, 6,8-difluoro-4-[(3S,4S)-3-methyl-4-{[3-(trifluoromethyl)-5,6-dihydro[1,2,4]triazolo[4,3-a]pyrazin-7(8H)-yl]carbonyl}piperidin-1-yl]quinoline-3-carbonitrile], 0.49 nM.
`C[C@H]1CN(c2c(C#N)cnc3c(F)c(Cl)ccc23)CC[C@H]1C(=O)N1CCn2c(nnc2C2CC2)C1` [Example 65, 7-chloro-4-{(3R,4R)-4-[(3-cyclopropyl-5,6-dihydro[1,2,4]triazolo[4,3-a]pyrazin-7(8H)-yl)carbonyl]-3-methylpiperidin-1-yl}-8-fluoroquinoline-3-carbonitrile] had an IC50 of 318 nM.
As to `C[C@@H]1CN(c2c(C#N)cnc3cccnc23)CC[C@@H]1C(=O)N1CCn2c(nnc2C(F)(F)F)C1` [Example 33, 4-[(3S,4S)-3-methyl-4-{[3-(trifluoromethyl)-5,6-dihydro[1,2,4]triazolo[4,3-a]pyrazin-7(8H)-yl]carobnyl}piperidin-1-yl]-1,5-naphthyridine-3-carbonitrile], the IC50 is 1.3 nM.
For `N#Cc1cnc2ccc(Cl)cc2c1N1CCC(F)(C(=O)N2CCn3c(nnc3C(F)(F)F)C2)CC1` [Example 120, 6-chloro-4-(4-fluoro-4-{[3-(trifluoromethyl)-5,6-dihydro[1,2,4]triazolo[4,3-a]pyrazin-7(8H)-yl]carbonyl}piperidin-1-yl)quinoline-3-carbonitrile] the value was 169 nM; for `C[C@@H]1CN(c2c(C#N)cnc3cc(OC4CC4)ccc23)CC[C@@H]1C(=O)N1CCn2c(nnc2C(F)(F)F)C1` [Example 38, 7-(cyclopropyloxy)-4-[(3S,4S)-3-methyl-4-{[3-(trifluoromethyl)-5,6-dihydro[1,2,4]triazolo[4,3-a]pyrazin-7(8H)-yl]carbonyl}piperidin-1-yl]quinoline-3-carbonitrile], 0.3 nM.
`C[C@@H]1CN(c2c(C#N)cnc3c(F)c(C(F)(F)F)ccc23)CC[C@@H]1C(=O)N1CCn2c(nnc2C(F)(F)F)C1` [Example 17, 8-fluoro-4-[(3S,4S)-3-methyl-4-{[3-(trifluoromethyl)-5,6-dihydro[1,2,4]triazolo[4,3-a]pyrazin-7(8H)-yl]carbonyl}piperidin-1-yl]-7-(trifluoromethyl)quinoline-3-carbonitrile] had an IC50 of 0.36 nM.
`CC1CC(C(=O)N2CCn3c(nnc3C(F)(F)F)C2)CCN1c1c(C#N)cnc2ccc(Cl)cc12` (single isomer, unassigned) [Example 73d, 6-chloro-4-[(2R,4S) or (2S,4R)-2-methyl-4-{[3-(trifluoromethyl)-5,6-dihydro[1,2,4]triazolo[4,3-a]pyrazin-7(8H)-yl]carbonyl}piperidin-1-yl]quinoline-3-carbonitrile] displayed an IC50 of 636 nM.
Under `C[C@@H]1CN(c2c(C#N)c(CO)nc3ccc(Cl)cc23)CC[C@@H]1C(=O)N1CCn2c(nnc2C(F)(F)F)C1` [Example 61, 6-chloro-2-(hydroxymethyl)-4-[(3S,4S)-3-methyl-4-{[3-(trifluoromethyl)-5,6-dihydro[1,2,4]triazolo[4,3-a]pyrazin-7(8H)-yl]carbonyl}piperidin-1-yl]quinoline-3-carbonitrile] stands 4.5 nM; under `C[C@@H]1CN(c2c(C#N)cnc3cc(OC(F)F)ccc23)CC[C@@H]1C(=O)N1CCn2c(nnc2C(F)(F)F)C1` [Example 62, 7-(difluoromethoxy)-4-[(3S,4S)-3-methyl-4-{[3-(trifluoromethyl)-5,6-dihydro[1,2,4]triazolo[4,3-a]pyrazin-7(8H)-yl]carbonyl}piperidin-1-yl]quinoline-3-carbonitrile], 1.1 nM; under `Cc1nc2ccc(F)cc2c(N2CC[C@H](C(=O)N3CCn4c(nnc4C(F)(F)F)C3)[C@H](C)C2)c1C#N` [Example 29, 6-fluoro-2-methyl-4-[(3S,4S)-3-methyl-4-{[3-(trifluoromethyl)-5,6-dihydro[1,2,4]triazolo[4,3-a]pyrazin-7(8H)-yl]carbonyl}piperidin-1-yl]quinoline-3-carbonitrile], 9.4 nM.
Under `CO[C@H]1CN(c2c(C#N)cnc3ccc(Cl)cc23)CC[C@H]1C(=O)N1CCn2c(nnc2C(F)(F)F)C1` [Example 72c, 6-chloro-4-[(3R,4R)-3-methoxy-4-{[3-(trifluoromethyl)-5,6-dihydro[1,2,4]triazolo[4,3-a]pyrazin-7(8H)-yl]carbonyl}piperidin-1-yl]quinoline-3-carbonitrile] stands 2210 nM; under `COc1ccc2c(N3CCC(C(=O)N4CCn5c(nnc5C(F)(F)F)C4)CC3)c(C#N)cnc2c1F` [Example 42, 8-fluoro-7-methoxy-4-(4-{[3-(trifluoromethyl)-5,6-dihydro[1,2,4]triazolo[4,3-a]pyrazin-7(8H)-yl]carbonyl}piperidin-1-yl)quinoline-3-carbonitrile], 49 nM; under `C[C@@H]1CN(c2c(C#N)cnc3c(Cl)c(F)ccc23)CC[C@@H]1C(=O)N1CCn2c(nnc2C(F)(F)F)C1` [Example 13, 8-chloro-7-fluoro-4-[(3S,4S)-3-methyl-4-{[3-(trifluoromethyl)-5,6-dihdyro[1,2,4]triazolo[4,3-a]pyrazin-7(8H)-yl]carbonyl}piperidin-1-yl]quinoline-3-carbonitrile], 3.3 nM.

For the origin of these results see US10414774B2, “Compound useful for altering the levels of bile acids for the treatment of diabetes and cardiometabolc disease” (Merck Sharp & Dohme Corp., priority 2016, dated 2019).
